Experimental data as given in ChEMBL document CHEMBL1201862, “PubChem BioAssay data set” (2004).
Activity calls are given as the source filed them.

How the values were obtained:
[1] = Luminescence Cell-Based Dose Retest to Confirm Inhibitors of Cancer Stem Cells. [Related pubchem assays (depositor defined):AID2717, AID2721]; type: functional; conditions: Homo sapiens
[2] = molecular target: Heat shock protein HSP 90-alpha (Homo sapiens, UniProt P07900); type: functional, organism-based
[3] = molecular target: Induced myeloid leukemia cell differentiation protein Mcl-1 (Homo sapiens, UniProt Q07820); type: functional
Chain of Induced myeloid leukemia cell differentiation protein Mcl-1 (Q07820 whole entry): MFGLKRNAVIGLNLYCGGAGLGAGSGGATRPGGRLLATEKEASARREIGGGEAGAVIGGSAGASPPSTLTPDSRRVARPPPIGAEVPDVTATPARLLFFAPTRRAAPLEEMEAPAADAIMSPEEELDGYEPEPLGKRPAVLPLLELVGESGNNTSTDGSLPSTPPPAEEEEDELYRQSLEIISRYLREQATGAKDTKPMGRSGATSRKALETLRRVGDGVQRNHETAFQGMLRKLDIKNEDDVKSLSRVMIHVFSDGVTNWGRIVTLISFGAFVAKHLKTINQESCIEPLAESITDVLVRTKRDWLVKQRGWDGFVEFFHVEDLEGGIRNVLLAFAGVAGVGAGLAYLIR

[4] = molecular target: T1, High affinity choline transporter 1 (Homo sapiens, UniProt Q9GZV3); test: human choline transporter blockers, potency – cell-based, 5-point CRC, membrane potential dye, dose response (AID 504840); type: functional
T1 sequence (Q9GZV3 whole entry): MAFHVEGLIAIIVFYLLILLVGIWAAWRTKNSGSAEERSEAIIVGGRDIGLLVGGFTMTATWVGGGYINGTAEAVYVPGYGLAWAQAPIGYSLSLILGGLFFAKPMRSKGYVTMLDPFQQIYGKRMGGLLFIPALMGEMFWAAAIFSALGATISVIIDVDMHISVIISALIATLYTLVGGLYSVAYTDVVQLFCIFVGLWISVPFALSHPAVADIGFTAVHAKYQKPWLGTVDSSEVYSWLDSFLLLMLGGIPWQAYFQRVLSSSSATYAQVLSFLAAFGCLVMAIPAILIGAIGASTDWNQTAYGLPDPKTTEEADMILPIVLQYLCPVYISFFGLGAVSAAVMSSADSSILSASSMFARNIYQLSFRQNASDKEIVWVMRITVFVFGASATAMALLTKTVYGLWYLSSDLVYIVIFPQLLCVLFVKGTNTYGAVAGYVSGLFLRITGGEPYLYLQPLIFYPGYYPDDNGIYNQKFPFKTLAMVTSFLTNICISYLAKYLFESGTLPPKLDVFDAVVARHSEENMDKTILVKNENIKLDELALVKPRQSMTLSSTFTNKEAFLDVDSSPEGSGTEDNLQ

BJ [5] = test: BJ-TERT fibroblast viability loss – cell-based, RAS-independent, luminescence, dose response (AID 1933); type: functional; conditions: Homo sapiens
BJ [6] = test: cells; type: functional, cell-based; conditions: Homo sapiens
BJ [7] = test: BJ-TERT-LT-ST fibroblast viability loss – cell-based, RAS-independent, luminescence, dose response (AID 1935); type: functional; conditions: Homo sapiens;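 also: BJ fibroblasts immortalized with TERT plus LT and ST oncogenes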
[8] = DRD fibroblast viability loss – cell-based, non-viral oncogenic, luminescence, dose response (AID 1934); type: functional; conditions: Homo sapiens
BJ [9] = test: growth inhibition of engineered Ras-driven BJ cells – cell-based, alamar blue fluorescence, cherrypicked samples, dose response (AID 2631); type: functional; conditions: Homo sapiens;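 also: confirmatory dose-response assay in RAS-dependent BJ fibroblasts engineered with TERT, LT and ST, with cytotoxicity read by fluorescence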
[10] = reduction of Shn3 3'UTR-driven luciferase in osteoblasts – cell-based, Clone20 osteoblasts, firefly luciferase, cherry-picked, dose response (AID 624132); type: functional;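 also: firefly luciferase luminescence from reporter carrying the Shn3 3'UTR in osteoblasts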
[11] = loss of viability in HepG2 cells – cell-based, CellTiter-Glo, cherry-picked, cytotoxicity control for Shn3 inhibitor project, dose response (AID 624134); type: functional
[12] = molecular target: T2, Mannose-6-phosphate isomerase (Homo sapiens, UniProt P34949); test: MPI inhibition at elevated mannose 6-phosphate – biochemical, fluorescence intensity, high mannose 6-phosphate, primary screen (AID 1220)
T2 sequence (P34949 whole entry): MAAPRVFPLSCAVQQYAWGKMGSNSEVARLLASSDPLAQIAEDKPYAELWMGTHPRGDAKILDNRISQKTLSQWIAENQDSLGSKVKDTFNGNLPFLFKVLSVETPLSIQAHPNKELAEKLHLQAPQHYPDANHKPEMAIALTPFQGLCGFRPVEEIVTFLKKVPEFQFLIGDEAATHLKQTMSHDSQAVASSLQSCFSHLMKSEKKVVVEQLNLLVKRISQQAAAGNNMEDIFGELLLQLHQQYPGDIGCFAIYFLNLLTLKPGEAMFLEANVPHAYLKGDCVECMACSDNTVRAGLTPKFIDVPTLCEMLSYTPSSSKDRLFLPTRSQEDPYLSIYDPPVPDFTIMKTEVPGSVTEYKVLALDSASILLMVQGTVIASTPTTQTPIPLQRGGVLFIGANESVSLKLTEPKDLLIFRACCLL

[13] = molecular target: T3, Short transient receptor potential channel 4 (Mus musculus, UniProt Q9QUQ5); test: block of DAMGO-driven TRPC4 calcium entry – cell-based, HEK293 TRPC4/mu-opioid, Fluo-4 calcium, dose response (AID 434942); type: functional;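 also: potency of inhibitors blocking the TRPC4 calcium response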
T3 sequence (Q9QUQ5 whole entry): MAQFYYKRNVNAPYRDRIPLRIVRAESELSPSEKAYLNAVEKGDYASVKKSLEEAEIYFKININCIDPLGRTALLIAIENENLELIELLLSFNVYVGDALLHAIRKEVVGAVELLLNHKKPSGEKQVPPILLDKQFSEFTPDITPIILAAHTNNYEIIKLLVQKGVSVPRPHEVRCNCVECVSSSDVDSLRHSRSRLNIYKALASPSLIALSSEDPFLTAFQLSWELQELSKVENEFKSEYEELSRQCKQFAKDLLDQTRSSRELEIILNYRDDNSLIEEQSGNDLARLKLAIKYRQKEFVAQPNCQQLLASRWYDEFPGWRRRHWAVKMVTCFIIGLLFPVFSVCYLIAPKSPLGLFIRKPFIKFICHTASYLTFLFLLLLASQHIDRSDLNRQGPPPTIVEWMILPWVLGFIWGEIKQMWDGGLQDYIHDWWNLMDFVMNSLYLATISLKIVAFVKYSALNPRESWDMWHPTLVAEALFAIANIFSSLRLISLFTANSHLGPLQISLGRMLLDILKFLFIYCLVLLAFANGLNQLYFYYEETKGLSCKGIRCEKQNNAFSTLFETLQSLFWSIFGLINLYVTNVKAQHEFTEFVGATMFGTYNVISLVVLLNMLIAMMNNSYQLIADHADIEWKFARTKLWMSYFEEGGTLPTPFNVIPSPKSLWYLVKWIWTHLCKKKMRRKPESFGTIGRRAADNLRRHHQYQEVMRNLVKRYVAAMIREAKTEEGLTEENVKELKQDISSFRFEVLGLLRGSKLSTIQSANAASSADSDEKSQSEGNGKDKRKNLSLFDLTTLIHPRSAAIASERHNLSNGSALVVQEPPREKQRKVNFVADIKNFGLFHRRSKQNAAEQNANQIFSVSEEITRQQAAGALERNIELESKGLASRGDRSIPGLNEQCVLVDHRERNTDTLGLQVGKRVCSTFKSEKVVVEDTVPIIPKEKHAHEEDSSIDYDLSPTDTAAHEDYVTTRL

[14] = molecular target: T4, Rac GTPase-activating protein 1 (Homo sapiens, UniProt Q9H0H5); test: blockers of MgcRacGAP-driven Rac1 GTP hydrolysis – biochemical, ADP Hunter fluorescence, primary and confirmatory, confirmation (AID 624330); type: functional
T4 sequence (Q9H0H5 whole entry): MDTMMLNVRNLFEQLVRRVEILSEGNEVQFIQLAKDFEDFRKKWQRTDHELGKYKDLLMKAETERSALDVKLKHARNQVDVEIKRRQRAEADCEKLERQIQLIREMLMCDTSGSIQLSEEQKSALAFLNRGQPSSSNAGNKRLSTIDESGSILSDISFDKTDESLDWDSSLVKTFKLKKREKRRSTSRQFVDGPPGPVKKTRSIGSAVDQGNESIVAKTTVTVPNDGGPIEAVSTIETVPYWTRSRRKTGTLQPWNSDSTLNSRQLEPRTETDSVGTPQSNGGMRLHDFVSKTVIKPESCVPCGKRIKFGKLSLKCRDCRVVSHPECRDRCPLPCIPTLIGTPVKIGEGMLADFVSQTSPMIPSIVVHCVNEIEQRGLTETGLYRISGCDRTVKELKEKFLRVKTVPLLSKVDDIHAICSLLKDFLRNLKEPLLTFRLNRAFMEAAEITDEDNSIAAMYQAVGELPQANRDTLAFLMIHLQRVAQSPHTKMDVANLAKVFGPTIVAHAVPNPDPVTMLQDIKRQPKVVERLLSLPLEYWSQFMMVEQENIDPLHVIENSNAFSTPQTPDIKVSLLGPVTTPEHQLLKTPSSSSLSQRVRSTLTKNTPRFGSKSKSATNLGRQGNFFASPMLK

[15] = HEK-293T viability loss after treatment – luminescence, T-cell screen hits, cytotoxicity control for TCR NF-kB inhibitor project, dose response (AID 489026); type: functional, cell-based;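 also: cells exposed to compound about 14 hours before the viability readout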
[16] = molecular target: T5, Polyadenylate-binding protein 1 (Homo sapiens, UniProt P11940); test: MLLE binding blockers, Cy5 peptide tracer – biochemical, fluorescence polarization, Cy5-PAM2 peptide, secondary, miRNA deadenylation inhibitor project, dose response (AID 602260); type: functional; conditions: read-out: IC50_Mean
T5 sequence (P11940 whole entry, the tested form may be a part): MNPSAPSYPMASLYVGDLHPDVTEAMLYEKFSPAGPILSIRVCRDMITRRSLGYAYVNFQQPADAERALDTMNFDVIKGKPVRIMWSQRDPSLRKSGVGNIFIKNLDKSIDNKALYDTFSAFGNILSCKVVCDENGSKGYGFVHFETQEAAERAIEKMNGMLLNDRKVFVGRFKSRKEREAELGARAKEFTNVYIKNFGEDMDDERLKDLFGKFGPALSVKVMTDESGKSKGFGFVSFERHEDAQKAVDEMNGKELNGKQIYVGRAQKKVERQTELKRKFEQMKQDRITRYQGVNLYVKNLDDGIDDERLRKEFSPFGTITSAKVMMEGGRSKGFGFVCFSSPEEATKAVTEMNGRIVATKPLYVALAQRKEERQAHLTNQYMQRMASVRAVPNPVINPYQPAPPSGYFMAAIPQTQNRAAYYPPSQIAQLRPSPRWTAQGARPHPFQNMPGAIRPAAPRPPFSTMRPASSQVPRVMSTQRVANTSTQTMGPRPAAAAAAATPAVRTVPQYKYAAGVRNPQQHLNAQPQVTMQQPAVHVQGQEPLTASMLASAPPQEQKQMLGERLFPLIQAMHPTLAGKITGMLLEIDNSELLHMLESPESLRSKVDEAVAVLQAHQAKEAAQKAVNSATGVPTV

[17] = molecular target: T5, Polyadenylate-binding protein 1; test: MLLE domain peptide-binding blockers, IC50 – biochemical, fluorescence polarization, FITC-PAM2 peptide, dose response (AID 602259); type: functional; conditions: read-out: IC50_Mean
Fatty acid synthase [18] = molecular target: T6, Fatty acid synthase (Homo sapiens, UniProt P49327); test: inhibition of human FAS-TE enzyme activity – biochemical, endpoint fluorescence intensity, uHTS hits, dose response (AID 624327); type: functional;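 also: fluorescence from hydrolysis of an O-methyl fluorescein acyl ester substrate by the enzyme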
T6 sequence (P49327 whole entry): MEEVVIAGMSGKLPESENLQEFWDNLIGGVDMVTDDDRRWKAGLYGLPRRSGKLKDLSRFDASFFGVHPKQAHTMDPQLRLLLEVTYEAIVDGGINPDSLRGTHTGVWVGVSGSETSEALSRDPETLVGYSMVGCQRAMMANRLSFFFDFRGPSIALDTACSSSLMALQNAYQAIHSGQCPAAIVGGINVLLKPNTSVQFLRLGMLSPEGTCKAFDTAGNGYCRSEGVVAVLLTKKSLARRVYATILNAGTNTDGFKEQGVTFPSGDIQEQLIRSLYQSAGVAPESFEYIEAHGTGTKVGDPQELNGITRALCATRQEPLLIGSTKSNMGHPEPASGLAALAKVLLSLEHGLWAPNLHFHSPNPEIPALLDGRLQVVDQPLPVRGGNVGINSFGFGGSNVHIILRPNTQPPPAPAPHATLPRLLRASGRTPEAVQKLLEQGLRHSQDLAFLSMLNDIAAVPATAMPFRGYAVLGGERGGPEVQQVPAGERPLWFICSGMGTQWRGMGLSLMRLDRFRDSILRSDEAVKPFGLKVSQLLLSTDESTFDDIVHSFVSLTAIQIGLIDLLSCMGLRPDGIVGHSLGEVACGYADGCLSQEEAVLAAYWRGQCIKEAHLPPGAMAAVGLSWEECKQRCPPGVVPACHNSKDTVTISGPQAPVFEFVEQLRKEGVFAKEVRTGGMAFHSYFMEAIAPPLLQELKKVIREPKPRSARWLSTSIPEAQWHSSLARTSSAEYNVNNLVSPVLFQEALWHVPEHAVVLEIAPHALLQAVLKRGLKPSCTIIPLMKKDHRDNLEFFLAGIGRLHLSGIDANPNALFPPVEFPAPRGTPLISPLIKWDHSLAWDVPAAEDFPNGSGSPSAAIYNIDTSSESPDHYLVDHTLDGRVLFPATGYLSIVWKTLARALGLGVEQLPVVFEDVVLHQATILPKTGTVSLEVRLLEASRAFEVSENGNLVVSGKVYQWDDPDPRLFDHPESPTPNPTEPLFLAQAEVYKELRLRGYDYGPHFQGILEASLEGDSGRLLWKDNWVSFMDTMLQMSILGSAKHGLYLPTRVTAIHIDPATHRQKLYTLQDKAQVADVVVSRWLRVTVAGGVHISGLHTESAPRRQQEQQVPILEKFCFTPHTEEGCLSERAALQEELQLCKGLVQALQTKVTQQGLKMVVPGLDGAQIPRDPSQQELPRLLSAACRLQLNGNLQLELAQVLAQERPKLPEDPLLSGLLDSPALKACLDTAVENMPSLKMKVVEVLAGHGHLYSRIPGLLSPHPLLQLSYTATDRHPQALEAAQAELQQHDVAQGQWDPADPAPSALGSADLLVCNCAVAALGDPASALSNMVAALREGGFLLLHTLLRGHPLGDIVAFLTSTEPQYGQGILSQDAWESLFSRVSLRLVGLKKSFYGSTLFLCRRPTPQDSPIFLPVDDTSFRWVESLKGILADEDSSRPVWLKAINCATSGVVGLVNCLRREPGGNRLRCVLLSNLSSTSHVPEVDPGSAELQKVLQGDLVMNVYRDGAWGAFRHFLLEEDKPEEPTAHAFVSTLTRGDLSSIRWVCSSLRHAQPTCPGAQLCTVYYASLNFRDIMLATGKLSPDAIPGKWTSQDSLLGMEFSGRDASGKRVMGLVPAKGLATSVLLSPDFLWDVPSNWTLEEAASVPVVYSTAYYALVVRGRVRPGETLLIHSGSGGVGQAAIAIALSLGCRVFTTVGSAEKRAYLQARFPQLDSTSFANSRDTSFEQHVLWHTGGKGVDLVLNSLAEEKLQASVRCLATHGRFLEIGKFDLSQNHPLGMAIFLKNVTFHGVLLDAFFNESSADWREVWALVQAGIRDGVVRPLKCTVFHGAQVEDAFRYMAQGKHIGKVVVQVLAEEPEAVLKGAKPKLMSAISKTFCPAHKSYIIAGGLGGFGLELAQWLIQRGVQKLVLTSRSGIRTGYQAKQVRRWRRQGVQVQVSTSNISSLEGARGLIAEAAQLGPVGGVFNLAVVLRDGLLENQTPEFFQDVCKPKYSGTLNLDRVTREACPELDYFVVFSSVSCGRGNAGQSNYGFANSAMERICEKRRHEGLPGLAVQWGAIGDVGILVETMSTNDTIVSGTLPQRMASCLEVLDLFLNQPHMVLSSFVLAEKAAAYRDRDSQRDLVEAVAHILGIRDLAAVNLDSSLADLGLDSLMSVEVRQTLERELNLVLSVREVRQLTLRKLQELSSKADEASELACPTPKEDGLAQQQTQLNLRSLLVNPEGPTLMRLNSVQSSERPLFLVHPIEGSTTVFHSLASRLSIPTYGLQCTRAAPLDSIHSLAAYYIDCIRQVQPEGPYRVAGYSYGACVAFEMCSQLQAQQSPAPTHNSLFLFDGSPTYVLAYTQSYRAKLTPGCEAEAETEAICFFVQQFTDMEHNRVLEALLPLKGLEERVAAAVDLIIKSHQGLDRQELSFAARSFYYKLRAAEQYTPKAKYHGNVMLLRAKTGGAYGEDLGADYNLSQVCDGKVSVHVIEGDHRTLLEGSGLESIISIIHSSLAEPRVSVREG

Fatty acid synthase [19] = molecular target: T6, Fatty acid synthase; test: inhibition of human FAS-TE enzyme activity – biochemical, kinetic fluorescence intensity, dose response (AID 624326); type: functional;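 also: rate of fluorescence rise from hydrolysis of a fluorogenic O-methyl fluorescein ester substrate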

## O=C(NCCCSc1ccccc1)c1cc(Br)ccc1O
[1]
  AC50: 3.38 µM (active)
[2]
  AC50: 4.6 µM (active)

## CC(=O)N1CCc2cc(S(=O)(=O)NC(Cc3ccccc3)C(=O)NC3CCCCCC3)ccc21 (stereo unspecified)
[3]
  IC50: 4.58 µM (not active)

## CN(Cc1ccccc1)C(=O)CN1CCN(C(c2ccccc2)c2ccccc2)CC1
[4]
  IC50: 11.5 µM (active)

## Cc1cccc(N2CCN(C(=S)Nc3ccc4nc(N5CCN(C)CC5)cc(C)c4c3)CC2)c1C
BJ [5]
  EC50: 1.22 µM (inconclusive)
BJ [6]
  EC50: 5.6 µM (inconclusive)
BJ [7]
  EC50: 1.33 µM (inconclusive)
[8]
  EC50: 2.46 µM (active)
BJ [9]
  EC50: 0.585 µM (active)
[10]
  AC50: 5.45 µM (active)
[11]
  AC50: 6.83 µM (active)

## CCOC(=O)C1=C(C)NC(=O)CC1c1cc2c(cc1[N+](=O)[O-])OCO2 (stereo unspecified)
[12]
  IC50: > 50 µM (not active)
[13]
  EC50: 1.68 µM (active)
[14]
  IC50: 100 µM (active)

## Cc1cc(C)cc(NS(=O)(=O)c2ccc(-c3cnc(C4CC4)o3)cc2)c1
BJ [5]
  EC50: 0.346 µM (active)
BJ [6]
  EC50: 26.2 µM (active)
BJ [7]
  EC50: 0.521 µM (inconclusive)
[8]
  EC50: 0.525 µM (active)
[15]
  IC50: > 80 µM (inactive)
BJ [9]
  EC50: < 0.104 µM (active)

## COc1cccc(-n2c(=S)sc3c(=O)n(-c4ccccc4OC)c(=S)[nH]c32)c1
[16]
  IC50: > 66 µM (inactive)
[17]
  IC50: > 66 µM (inactive)

## O=C(c1ccc(COc2ccccc2[N+](=O)[O-])o1)N1CCCCCC1
[4]
  IC50: 12.6 µM (active)

## CCCN1C(=O)SC(CC(=O)Nc2ccc(C)cc2)C1=O (stereo unspecified)
[16]
  IC50: > 66 µM (inactive)
[17]
  IC50: > 66 µM (inactive)

## CC1=C(C(=O)O)N2C(=O)C(NC(=O)c3ccc(F)cc3)C2SC1 (stereo unspecified)
[16]
  IC50: > 66 µM (inactive)
[17]
  IC50: > 66 µM (inactive)

## CN(Cc1ccc(C(C)(C)C)cc1)C(=O)Cc1ccc(S(=O)(=O)N2CCOCC2)s1
Fatty acid synthase [18]
  IC50: 0.424 µM (active)
Fatty acid synthase [19]
  IC50: 0.291 µM (active)

## CCOC(=O)C1CCCN(c2ccc(NC(=O)c3snc4c(=O)[nH]c(C)nc34)cc2)C1 (stereo unspecified)
[3]
  IC50: 5.25 µM (active)

## CC(=O)Nc1ccc(-c2csc(NC(=O)C3CC(=O)N(c4ccc5c(c4)OCCO5)C3)n2)cc1 (stereo unspecified)
[3]
  IC50: 3.44 µM (active)
